Results published in patent US11759455B2, “Substituted 1H-imidazo[4,5-b]pyridin-2(3H)-ones and their use as GLUN2B receptor modulators” (JANSSEN PHARMACEUTICA NV, priority 2016, dated 2023).
Like-named read-outs stand apart in the source and are kept apart here.

Target: T1, human GluN1/GluN2B NMDA receptors (Homo sapiens, UniProt Q13224)
T1 construct: expressed in transfected cells
Experiment: Cell-based calcium flux (FLIPR) assay on cloned human NR1/NR2B ion channels expressed in mammalian cells (standard and HTS buffer variants);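 further: stable Tet-On inducible cell line, Ca2+ influx triggered by glutamate at about EC40 plus 10 µM glycine, fluorescent dye read-out over 5 min, normalized to control wells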

[1] = standard assay buffer (0.5 mM MgCl2 in dye loading buffer; 137 mM NaCl, 4 mM KCl in assay buffer), human GluN1/GluN2B, read-out: NR2B IC50 (μM) standard assay
[2] = standard assay buffer (0.5 mM MgCl2 dye loading; 137 mM NaCl, 4 mM KCl assay buffer), human GluN1/GluN2B cells, read-out: NR2B IC50 (μM) standard assay
[3] = HTS assay buffer (1.5 mM MgCl2 in dye loading buffer; 150 mM NaCl, 3 mM KCl in assay buffer), human GluN1/GluN2B, read-out: NR2B IC50 (μM) HTS assay

T1 sequence (Q13224 27-1484, other chains not shown): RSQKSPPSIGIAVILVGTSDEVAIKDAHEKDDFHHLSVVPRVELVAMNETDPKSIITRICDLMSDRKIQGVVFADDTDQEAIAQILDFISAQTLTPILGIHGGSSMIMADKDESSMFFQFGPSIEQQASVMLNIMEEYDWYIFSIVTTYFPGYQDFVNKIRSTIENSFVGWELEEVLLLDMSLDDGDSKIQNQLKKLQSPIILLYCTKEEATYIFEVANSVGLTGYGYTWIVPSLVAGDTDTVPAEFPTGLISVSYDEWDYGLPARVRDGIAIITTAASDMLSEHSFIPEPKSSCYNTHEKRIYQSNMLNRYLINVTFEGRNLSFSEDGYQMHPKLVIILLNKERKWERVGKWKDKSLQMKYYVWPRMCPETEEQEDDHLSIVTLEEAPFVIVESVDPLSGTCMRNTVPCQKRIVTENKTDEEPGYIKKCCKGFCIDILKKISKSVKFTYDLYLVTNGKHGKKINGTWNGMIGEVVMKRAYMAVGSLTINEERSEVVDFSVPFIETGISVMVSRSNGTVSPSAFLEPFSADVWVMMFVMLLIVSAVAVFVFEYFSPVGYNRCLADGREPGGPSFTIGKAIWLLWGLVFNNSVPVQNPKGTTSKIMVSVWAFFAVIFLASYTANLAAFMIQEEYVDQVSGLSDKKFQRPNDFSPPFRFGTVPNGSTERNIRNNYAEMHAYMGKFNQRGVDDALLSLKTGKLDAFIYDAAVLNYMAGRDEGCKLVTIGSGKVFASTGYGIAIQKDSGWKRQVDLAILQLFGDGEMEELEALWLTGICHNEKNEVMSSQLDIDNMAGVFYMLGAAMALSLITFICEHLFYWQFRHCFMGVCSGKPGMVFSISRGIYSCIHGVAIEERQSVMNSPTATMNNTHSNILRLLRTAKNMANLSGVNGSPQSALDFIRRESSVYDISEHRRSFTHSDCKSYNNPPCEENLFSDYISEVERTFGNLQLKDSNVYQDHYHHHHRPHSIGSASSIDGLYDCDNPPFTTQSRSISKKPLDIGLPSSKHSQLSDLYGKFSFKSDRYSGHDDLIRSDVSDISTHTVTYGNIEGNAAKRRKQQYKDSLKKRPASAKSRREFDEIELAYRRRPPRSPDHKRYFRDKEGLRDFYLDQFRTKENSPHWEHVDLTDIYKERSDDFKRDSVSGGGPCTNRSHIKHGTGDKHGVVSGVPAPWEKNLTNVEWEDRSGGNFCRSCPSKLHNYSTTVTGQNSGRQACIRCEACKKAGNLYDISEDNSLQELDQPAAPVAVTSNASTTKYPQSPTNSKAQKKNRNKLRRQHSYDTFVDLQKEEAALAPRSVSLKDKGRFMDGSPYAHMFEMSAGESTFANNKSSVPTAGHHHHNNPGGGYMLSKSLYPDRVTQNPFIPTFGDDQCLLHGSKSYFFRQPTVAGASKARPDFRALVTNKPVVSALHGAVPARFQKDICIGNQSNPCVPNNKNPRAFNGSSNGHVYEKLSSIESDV

Structure (SMILES)	IC50 [1]	IC50 [2]	also measured
Cn1c(=O)n(Cc2cccnc2)c2cc(-c3cccc(C(F)(F)F)c3F)cnc21 [Example 358, 6-[2-Fluoro-3-(trifluoromethyl)phenyl]-3-methyl-1-(3-pyridylmethyl)imidazo[4,5-b]pyridin-2-one]	0.049 µM	–	–
Cn1c(=O)n(CC(=O)N2CCC2)c2cc(-c3ccc(F)c(C(F)F)c3)cnc21 [Example 584, 1-[2-(Azetidin-1-yl)-2-oxo-ethyl]-6-[3-(difluoromethyl)-4-fluoro-phenyl]-3-methyl-imidazo[4,5-b]pyridin-2-one]	0.024 µM	–	–
O=c1[nH]c2ncc(-c3ccc(F)c(F)c3)cc2n1Cc1cccnc1 [Example 292, 6-(3,4-Difluorophenyl)-1-(3-pyridylmethyl)-3H-imidazo[4,5-b]pyridin-2-one]	–	0.06 µM	–
Cc1nnc(Cn2c(=O)n(C)c3ncc(-c4cccc(C(F)(F)F)c4)cc32)o1 [Example 75, 3-Methyl-1-[(5-methyl-1,3,4-oxadiazol-2-yl)methyl]-6-[3-(trifluoromethyl)phenyl]imidazo[4,5-b]pyridin-2-one]	–	0.093 µM	–
Cc1csc(-c2cnc3c(c2)n(CC(=O)N(C)C)c(=O)n3C)c1 [Example 80, N,N-Dimethyl-2-[3-methyl-6-(4-methyl-2-thienyl)-2-oxo-imidazo[4,5-b]pyridin-1-yl]acetamide]	–	0.03 µM	–
Cc1cc(F)ccc1-c1cnc2c(c1)n(CC(=O)NC1CC1)c(=O)n2C [Example 42, N-Cyclopropyl-2-[6-(4-fluoro-2-methyl-phenyl)-3-methyl-2-oxo-imidazo[4,5-b]pyridin-1-yl]acetamide]	–	–	IC50 (HTS assay buffer (1.5 mM MgCl2 dye loading; 150 mM NaCl, 3 mM KCl assay buffer), human GluN1/GluN2B cells, read-out: NR2B IC50 (μM) HTS assay): 2.71 µM
COc1cccc(Cn2c(=O)[nH]c3ncc(-c4cccnc4)cc32)c1 [Example 506, 1-[(3-Methoxyphenyl)methyl]-6-(3-pyridyl)-3H-imidazo[4,5-b]pyridin-2-one]	–	–	IC50 [3]: > 29 µM
CNC(=O)Cn1c(=O)[nH]c2ncc(-c3cc(C)cc(C)c3)cc21 [Example 438, 2-[6-(3,5-Dimethylphenyl)-2-oxo-3H-imidazo[4,5-b]pyridin-1-yl]-N-methyl-acetamide]	–	–	IC50 [3]: 0.394 µM
O=c1[nH]c2ncc(-c3cccc(OC(F)(F)F)c3)cc2n1Cc1cncc(F)c1 [Example 307, 1-[(5-Fluoro-3-pyridyl)methyl]-6-[3-(trifluoromethoxy)phenyl]-3H-imidazo[4,5-b]pyridin-2-one]	–	0.088 µM	–
Cn1c(=O)n(Cc2cncc(F)c2)c2cc(-c3ccc(F)c(C(F)F)c3)cnc21 [Example 546, 6-[3-(Difluoromethyl)-4-fluoro-phenyl]-1-[(5-fluoro-3-pyridyl)methyl]-3-methyl-imidazo[4,5-b]pyridin-2-one]	0.024 µM	–	–
Cc1cccc(-c2cnc3[nH]c(=O)n(CC(=O)N4CC(F)(F)C4)c3c2)c1 [Example 580, 1-[2-(3,3-Difluoroazetidin-1-yl)-2-oxo-ethyl]-6-(m-tolyl)-3H-imidazo[4,5-b]pyridin-2-one]	0.026 µM	–	–
Cn1c(=O)n(Cc2cccnn2)c2cc(-c3cc(C(F)F)ccc3F)cnc21 [Example 385, 6-(5-(Difluoromethyl)-2-fluorophenyl)-3-methyl-1-(pyridazin-3-ylmethyl)-1,3-dihydro-2H-imidazo[4,5-b]pyridin-2-one]	0.653 µM	–	–
Cn1c(=O)n(Cc2cncc(F)c2)c2cc(-c3cccc(OC(F)(F)F)c3)cnc21 [Example 345, 1-[(5-Fluoro-3-pyridyl)methyl]-3-methyl-6-[3-(trifluoromethoxy)phenyl]imidazo[4,5-b]pyridin-2-one]	0.778 µM	–	–
CCOc1ccccc1-c1cnc2[nH]c(=O)n(Cc3cccc(OC)c3)c2c1 [Example 605, 6-(2-Ethoxyphenyl)-1-[(3-methoxyphenyl)methyl]-3H-imidazo[4,5-b]pyridin-2-one]	2.09 µM	–	–
Cc1cc(Cn2c(=O)[nH]c3ncc(-c4ccccc4C)cc32)no1 [Example 126, 1-[(5-Methylisoxazol-3-yl)methyl]-6-(o-tolyl)-3H-imidazo[4,5-b]pyridin-2-one]	–	0.038 µM	–
Cc1csc(-c2cnc3c(c2)n(CC(=O)N2CC(F)C2)c(=O)n3C)n1 [Example 86, 1-[2-(3-Fluoroazetidin-1-yl)-2-oxo-ethyl]-3-methyl-6-(4-methylthiazol-2-yl)imidazo[4,5-b]pyridin-2-one]	–	1.6 µM	–
CCOc1ccc(F)cc1-c1cnc2[nH]c(=O)n(Cc3ccccc3C#N)c2c1 [Example 489, 2-[[6-(2-Ethoxy-5-fluoro-phenyl)-2-oxo-3H-imidazo[4,5-b]pyridin-1-yl]methyl]benzonitrile]	–	–	IC50 [3]: 1.28 µM
Cn1c(=O)n(CC(=O)N2CCC2)c2cc(-c3ccc(C4CC4)s3)cnc21 [Example 105, 1-[2-(Azetidin-1-yl)-2-oxo-ethyl]-6-(5-cyclopropyl-2-thienyl)-3-methyl-imidazo[4,5-b]pyridin-2-one]	–	0.081 µM	–
Cc1cc(Cn2c(=O)[nH]c3ncc(-c4ccc(F)cc4C)cc32)no1 [Example 522, 6-(4-Fluoro-2-methyl-phenyl)-1-[(5-methylisoxazol-3-yl)methyl]-3H-imidazo[4,5-b]pyridin-2-one]	0.034 µM	–	–
Cn1c(=O)n(CC(=O)N2CCC2)c2cc(-c3ccsc3C(F)(F)F)cnc21 [Example 95, 1-[2-(Azetidin-1-yl)-2-oxo-ethyl]-3-methyl-6-[2-(trifluoromethyl)-3-thienyl]imidazo[4,5-b]pyridin-2-one]	–	0.096 µM	–
COc1ccc(Cn2c(=O)[nH]c3ncc(-c4cccc(C(F)(F)F)c4)cc32)cn1 [Example 210, 1-[(6-Methoxy-3-pyridyl)methyl]-6-[3-(trifluoromethyl)phenyl]-3H-imidazo[4,5-b]pyridin-2-one]	–	1.62 µM	–
Cn1c(=O)n(CC(=O)N2CCCC2)c2cc(-c3cccc(C(F)(F)F)c3)cnc21 [Example 197, 3-Methyl-1-(2-oxo-2-pyrrolidin-1-yl-ethyl)-6-[3-(trifluoromethyl)phenyl]imidazo[4,5-b]pyridin-2-one]	–	0.205 µM	–
Cn1c(=O)n(Cc2cncc(F)c2)c2cc(-c3cccc(Cl)c3)cnc21 [Example 348, 6-(3-Chlorophenyl)-1-[(5-fluoro-3-pyridyl)methyl]-3-methyl-imidazo[4,5-b]pyridin-2-one]	0.213 µM	–	–
Cc1cc(Cn2c(=O)n(C)c3ncc(-c4ccc(C)s4)cc32)no1 [Example 558, 3-Methyl-1-[(5-methylisoxazol-3-yl)methyl]-6-(5-methyl-2-thienyl)imidazo[4,5-b]pyridin-2-one]	0.216 µM	–	–
Cn1c(=O)n(Cc2cccnn2)c2cc(-c3ccc(F)c(OC(F)F)c3)cnc21 [Example 542, 6-[3-(Difluoromethoxy)-4-fluoro-phenyl]-3-methyl-1-(pyridazin-3-ylmethyl)imidazo[4,5-b]pyridin-2-one]	0.016 µM	–	–
Cn1c(=O)n(Cc2cccnn2)c2cc(-c3cccc(C(F)(F)F)c3)cnc21 [Example 378, 3-Methyl-1-(pyridazin-3-ylmethyl)-6-[3-(trifluoromethyl)phenyl]imidazo[4,5-b]pyridin-2-one]	0.031 µM	–	–
Cc1ccc(-c2cnc3c(c2)n(Cc2csnn2)c(=O)n3C)s1 [Example 556, 3-Methyl-6-(5-methyl-2-thienyl)-1-(thiadiazol-4-ylmethyl)imidazo[4,5-b]pyridin-2-one]	0.363 µM	–	–
CCC(=O)Cn1c(=O)[nH]c2ncc(-c3cccc(C(F)(F)F)c3)cc21 [Example 240, 1-(2-Oxobutyl)-6-[3-(trifluoromethyl)phenyl]-3H-imidazo[4,5-b]pyridin-2-one]	–	0.022 µM	–
